Test system: mice
Assay: acute toxicity (LD50) after bolus intravenous administration
Format: in vivo
Details: ratio to the analogue lacking the 6-substituent (or 5- and 6-substituents) in the pyridyl group
Excerpt: The compounds of Structure (2) have particularly good histamine H,- and H2- antagonist activity and are less acutely toxic in mice (when administered intravenously) than the corresponding compounds of Structure (2) in which R is hydrogen. This decrease in acute toxicity is in general is not accompanied by a reduction in histamine H1-antagonist activity or histamine H2-antagonist activity. […] (LD50 is the minimum dose which kills 50% of mice after bolus intravenous administration of the test compound).

| Structure (SMILES) | LD50 value compared with the corresponding 5-(3-pyridylmethyl) analogue |
| --- | --- |
| Cc1cc(Cc2cnc(NCCSCc3ncccc3Br)[nH]c2=O)cnc1C [Example 11, 2-[2-(3-bromo-2-pyridylmethylthio)ethylamino]-5-(5,6-dimethyl-3-pyridylmethyl)-4-pyrimidone] | at least three |
| Cc1ccc(Cc2cnc(NCCSCc3nc[nH]c3C)[nH]c2=O)cn1 [Example 2, 2-[2-(5-methyl-4-imidazolylmethylthio)ethylamino]-5-(6-methyl-3-pyridylmethyl)-4-pyrimidone] | at least three |
| COc1ccc(Cc2cnc(NCCSCc3nc[nH]c3C)[nH]c2=O)cn1 [Example 13, 2-[2-(5-methyl-4-imidazolylmethylthio)ethylamino]-5-(6-methoxy-3-pyridyImethyl)-4-pyrimidone] | at least three |
| Cc1ccc(Cc2cnc(NCCSCc3nccs3)[nH]c2=O)cn1 [Example 9, 2-[2-(2-thiazolylmethylthio)ethylamino]-5-(6-methyl-3-pyridylmethyl)-4-pyrimidone] | at least three |
| Cc1ccc(Cc2cnc(NCCCCc3ncccc3Cl)[nH]c2=O)cn1 [Example 7, 2-[4-(3-chloro-2-pyridyl)butylamino]-5-(6-methyl-3-pyridyImethyl)-4-pyrimidone] | at least three |
| COc1cccnc1CCCCNc1ncc(Cc2ccc(C)nc2)c(=O)[nH]1 [Example 1, 2-[4-(3-methoxy-2-pyridyl)butylamino]-5-(6-methyl-3-pyridylmethyl)-4-pyrimidone] | at least three |

From EP0017679B1, “Pyridylalkylpyrimidone compounds, process for preparing them and pharmaceutical compositions containing them” (SMITH KLINE & FRENCH LABORATORIES LIMITED, priority 1979, dated 1980)
